These results are taken from article PMC4767422, “Molecular insights into the enzymatic diversity of flavin‐trafficking protein (Ftp; formerly ApbE) in flavoprotein biogenesis in the bacterial periplasm” (MicrobiologyOpen, 2015).

Molecules are shown by their SMILES. Where a chain is given by its changes, count along the chain named.

One assay concerns the target T1, Ftp_Ab (Alcanivorax borkumensis, UniProt Q0VQR2).
T1 construct: gene apbE; residues 21-338, signal peptide and acylated Cys removed, N-terminal TEV-cleavable His6 tag (pSpeedET), E. coli
T1 sequence (Q0VQR2 20-337): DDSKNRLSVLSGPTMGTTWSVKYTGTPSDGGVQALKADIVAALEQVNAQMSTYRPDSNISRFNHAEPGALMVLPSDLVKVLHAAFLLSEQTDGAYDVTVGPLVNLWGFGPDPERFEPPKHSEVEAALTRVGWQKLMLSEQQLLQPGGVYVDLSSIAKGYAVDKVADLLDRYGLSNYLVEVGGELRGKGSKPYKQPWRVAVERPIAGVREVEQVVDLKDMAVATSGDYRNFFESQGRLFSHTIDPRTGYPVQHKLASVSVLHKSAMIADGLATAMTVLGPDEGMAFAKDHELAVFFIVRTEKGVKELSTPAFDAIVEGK
As to the kind of experiment: UV-visible spectrum of protein as isolated. As to conditions: co-purified flavin, nonstoichiometric; buffer A, pH 7.5. The assay is classed as binding.

The target of a further assay is T2, Ftp_Lm (Listeria monocytogenes, UniProt A0A0H3GJF7).
T2 construct: gene LMRG_02181; residues 22-361, signal peptide and acylated Cys removed, N-terminal TEV-cleavable His6 tag (pSpeedET), E. coli
T2 sequence (A0A0H3GJF7 21-360): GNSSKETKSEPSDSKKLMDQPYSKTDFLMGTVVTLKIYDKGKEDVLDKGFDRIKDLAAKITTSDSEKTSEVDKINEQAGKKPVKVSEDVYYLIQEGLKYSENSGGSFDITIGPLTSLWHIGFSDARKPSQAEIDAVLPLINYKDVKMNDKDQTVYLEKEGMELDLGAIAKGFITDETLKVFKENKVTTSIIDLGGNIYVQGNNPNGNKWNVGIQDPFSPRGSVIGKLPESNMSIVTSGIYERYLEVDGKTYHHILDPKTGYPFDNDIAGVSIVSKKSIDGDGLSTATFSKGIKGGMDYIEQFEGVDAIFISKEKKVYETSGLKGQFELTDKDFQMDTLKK
As to the kind of experiment: FAD pyrophosphatase assay, FMN fluorescence. The assay is classed as biochemical. As to conditions: 10 uM FAD, 5 mM MgCl2, pH 7.5; single turnover.

In another assay the target is T3, Ftp_Ef (Enterococcus faecalis, UniProt Q82Z24).
T3 construct: gene EF_3255; residues 21-356, signal peptide and acylated Cys removed, N-terminal TEV-cleavable His6 tag (pSpeedET), E. coli
T3 sequence (Q82Z24 22-355): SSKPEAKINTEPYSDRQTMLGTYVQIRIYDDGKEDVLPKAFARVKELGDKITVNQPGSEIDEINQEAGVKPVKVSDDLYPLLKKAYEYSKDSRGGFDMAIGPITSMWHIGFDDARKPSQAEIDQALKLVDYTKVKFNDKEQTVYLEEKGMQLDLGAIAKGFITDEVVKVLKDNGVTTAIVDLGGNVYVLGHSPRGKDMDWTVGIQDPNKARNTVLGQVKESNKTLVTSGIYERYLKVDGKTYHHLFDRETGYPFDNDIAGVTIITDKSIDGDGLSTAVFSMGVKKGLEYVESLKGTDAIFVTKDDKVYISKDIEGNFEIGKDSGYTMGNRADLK
As to the kind of experiment: FAD pyrophosphatase assay, FMN fluorescence. The format is biochemical. Conditions: 10 uM FAD, 5 mM MgCl2, pH 7.5; single turnover.

The target of the next assay is T4, Ftp_Hd ([Haemophilus] ducreyi, UniProt Q7VNU3).
T4 construct: gene apbE; residues 17-343, signal peptide and acylated Cys removed, N-terminal TEV-cleavable His6 tag (pSpeedET), E. coli
T4 sequence (Q7VNU3 16-342): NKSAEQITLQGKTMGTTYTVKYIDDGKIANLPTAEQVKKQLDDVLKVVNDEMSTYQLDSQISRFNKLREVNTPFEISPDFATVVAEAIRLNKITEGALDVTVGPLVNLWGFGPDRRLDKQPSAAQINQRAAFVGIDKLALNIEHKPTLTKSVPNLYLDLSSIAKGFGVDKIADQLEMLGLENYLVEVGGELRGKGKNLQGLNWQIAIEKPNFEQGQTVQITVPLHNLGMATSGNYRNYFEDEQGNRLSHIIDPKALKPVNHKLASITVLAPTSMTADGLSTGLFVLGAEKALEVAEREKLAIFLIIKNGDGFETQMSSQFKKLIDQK
As to the kind of experiment: UV-visible spectrum of protein as isolated. The format is binding. Conditions: co-purified flavin, nonstoichiometric; buffer A, pH 7.5.

Assay [1] deals with T5, Ftp_Ec (Escherichia coli, UniProt P0AB85).
T5 construct: gene apbE; recombinant, ligand-free preparation as in Deka et al. 2013a; signal peptide removed; crystal model residues about 12-341
T5 sequence (P0AB85 21-351): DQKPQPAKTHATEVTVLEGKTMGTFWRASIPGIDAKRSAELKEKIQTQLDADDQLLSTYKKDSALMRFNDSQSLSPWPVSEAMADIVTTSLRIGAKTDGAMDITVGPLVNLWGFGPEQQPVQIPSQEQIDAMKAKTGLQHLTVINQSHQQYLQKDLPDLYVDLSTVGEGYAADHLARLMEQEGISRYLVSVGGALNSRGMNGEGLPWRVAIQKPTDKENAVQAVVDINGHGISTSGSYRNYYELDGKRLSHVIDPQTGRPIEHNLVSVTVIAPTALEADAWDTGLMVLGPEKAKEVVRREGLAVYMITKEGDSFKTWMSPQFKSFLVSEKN
Briefly: fluorescence decrease on FAD binding; flavinylation gel. The format is biochemical. As to conditions: binds FAD without hydrolysis; FMN donor to RnfG_Ec with 5 mM MgCl2, pH 7.5.

The next assay concerns the target T6, Ftp_Td (Treponema denticola, UniProt Q73JG1).
T6 construct: gene TDE_2614; residues 28-372, signal peptide and acylated Cys removed, N-terminal TEV-cleavable His6 tag (pSpeedET), E. coli
T6 sequence (Q73JG1 28-371): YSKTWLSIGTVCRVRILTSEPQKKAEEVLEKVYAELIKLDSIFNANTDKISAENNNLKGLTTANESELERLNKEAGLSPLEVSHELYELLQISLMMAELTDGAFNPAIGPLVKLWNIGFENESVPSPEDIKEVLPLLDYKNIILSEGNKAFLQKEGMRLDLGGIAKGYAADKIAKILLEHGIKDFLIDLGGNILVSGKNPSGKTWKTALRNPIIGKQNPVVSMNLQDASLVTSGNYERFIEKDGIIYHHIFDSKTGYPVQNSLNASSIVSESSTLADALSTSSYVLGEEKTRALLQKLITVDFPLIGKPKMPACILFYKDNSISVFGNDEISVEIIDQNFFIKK
Briefly: FAD pyrophosphatase assay, FMN fluorescence. The format is biochemical. As to conditions: 10 uM FAD, 5 mM MgCl2, pH 7.5; single turnover.

For assay [2], the target named is T7, Ftp_Ec (Escherichia coli, UniProt P0AB85, Y79N).
T7 construct: gene apbE; recombinant, ligand-free preparation as in Deka et al. 2013a; signal peptide removed; crystal model residues about 12-341
T7 sequence (P0AB85 21-351 Y79N): T5 sequence (P0AB85 21-351) with Y59N
As to the kind of experiment: crystal structure, […]-1.[…] A; also inhibits FAD pyrophosphatase activity. The assay is classed as binding. As to conditions: two Mg2+ bound; active site.

The next assay concerns the target T8, NqrC_So (Shewanella oneidensis, UniProt Q8EID8).
T8 construct: gene nqrC; residues 32-265, without N-terminal membrane anchor; recloned into pProEx HTb; His tag cut with TEV after flavinylation
T8 sequence (Q8EID8 32-264): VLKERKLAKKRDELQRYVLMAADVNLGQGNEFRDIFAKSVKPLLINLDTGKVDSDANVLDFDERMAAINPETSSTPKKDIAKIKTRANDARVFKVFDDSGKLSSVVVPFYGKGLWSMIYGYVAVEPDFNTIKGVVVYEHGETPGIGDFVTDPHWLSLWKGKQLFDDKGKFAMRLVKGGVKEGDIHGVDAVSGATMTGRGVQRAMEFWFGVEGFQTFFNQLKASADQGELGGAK
Briefly: crystal structure, […] A. The format is binding. As to conditions: covalent phosphoester-threonyl-FMN at T225, formed in vitro by Ftp_So from FAD and Mg2+.

On to `Cc1cc2nc3c(=O)[nH]c(=O)nc-3n(C[C@H](O)[C@H](O)[C@H](O)COP(=O)(O)OP(=O)(O)OC[C@H]3O[C@@H](n4cnc5c(N)ncnc54)[C@H](O)[C@@H]3O)c2cc1C` [FAD], for which the “UV-visible spectrum of protein as isolated” value on Ftp_Ab is “purified as yellow, flavin‐bound forms (holoproteins)”; on Ftp_Hd it was “purified as yellow, flavin‐bound forms (holoproteins)”. Besides, the “FAD pyrophosphatase assay, FMN fluorescence” value at Ftp_Lm, at Ftp_Ef and at Ftp_Td was “all nonyellow Ftps showed single‐turnover kinetics of FAD pyrophosphatase activity” throughout. At Ftp_Ec [1], the “fluorescence decrease on FAD binding; flavinylation gel” value was “wild‐type Ftp_Ec (in orange) binds FAD as demonstrated by a decrease in the emission fluorescence”.
In the case of `Nc1ncnc2c1ncn2[C@@H]1O[C@H](COP(=O)(O)OP(=O)(O)O)[C@@H](O)[C@H]1O` [ADP], the “crystal structure, 1.85-1.90 A; also inhibits FAD pyrophosphatase activity” value on Ftp_Ec [2] is on record as “we obtained a crystal structure of the ADP complex with two metals bound”.
Regarding `Cc1cc2nc3c(=O)[nH]c(=O)nc-3n(C[C@H](O)[C@H](O)[C@H](O)COP(=O)(O)O)c2cc1C` [FMN], the “crystal structure, 1.76 A” value on NqrC_So is “The modified threonine (T225) lies at the N‐terminal end of the C‐terminal alpha helix”.
